These results are taken from US6783756B2, “Methods for regulating gene expression” (Abbott GmbH & Co., KG, priority 1993, dated 2004).

The subject of one data set is lacR/O. As to conditions: eucaryotic cells; cited from earlier work.
The target of another data set is lacR (Escherichia coli, UniProt P03023). As to conditions: cited from earlier work.
For data set [1] the following is noted: compared to Tc; cited from earlier work.
For another data set, the system named is HeLa cells. The experiment in a line: Growth behavior and morphology of HeLa cells in tetracycline-containing medium. The format is cell-based, human. The protocol: The tTA inactivation studies were carried out with 1 μg of tetracycline per ml in the culture medium. […] Only at tetracycline concentrations well above 10 μg/ml were such changes observed upon prolonged incubation.

In a further data set the target is T1, tTA (Escherichia coli, UniProt P04483).
T1 construct: LOCATION: 1..207; expressed in transfected cells
T1 sequence (P04483 whole entry, added parts left off): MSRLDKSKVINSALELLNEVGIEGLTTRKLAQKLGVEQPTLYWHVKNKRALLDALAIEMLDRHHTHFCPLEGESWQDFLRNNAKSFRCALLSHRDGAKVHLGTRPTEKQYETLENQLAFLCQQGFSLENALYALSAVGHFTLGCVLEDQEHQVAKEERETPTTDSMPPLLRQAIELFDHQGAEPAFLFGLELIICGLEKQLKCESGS
The experiment in a line: Kinetics of tetracycline action on luciferase activity in X1 cells. The format is cell-based, human. Conditions: for Luciferase activity after addition of tetracycline, share of original value: tetracycline 1 μg/ml. As for the experimental part:
FIG. 3B: Kinetics of tetracycline action. X1 cells were grown in 100 mm dishes to 80% confluency in the absence or presence (0.1 μg/ml) of tetracycline. At time 0, cells were washed with phosphate-buffered saline and split into smaller culture dishes ( 1/20th of the initial cultures per 35 mm dish). Half of the cultures remained in tetracycline-free medium (▪) and the other half were incubated in the presence of tetracycline (1 μg/ml; □). The X1 culture grown in tetracycline-containing medium was split in the same manner; one half was further incubated in the presence of tetracycline (●), whereas the other half was transferred to tetracycline-free medium (∘). At the times indicated, aliquots were harvested and examined for luciferase activity. The slight increase in luciferase activity monitored at 4 hr in the culture containing tetracycline (●) is reproducible and reflects luciferase induction during the washing step.
The time course of tetracycline action was analyzed in cultures grown in the absence or presence of tetracycline. At time 0, the antibiotic was added to the tetracycline-free cultures (final concentration, 1 μg/ml), whereas the tetracycline-containing cultures were rinsed and incubated in fresh antibiotic-free medium (FIG. 3 panel b). At various times, cells were harvested and analyzed for luciferase activity. […] A similarly rapid reduction of luciferase activity was observed when tetracycline was added to the fully active tetracycline-free system: within 8 hr activity dropped to about 10% and reached <2% of its original value after 12 hr.

lacR, sequence (P03023 whole entry): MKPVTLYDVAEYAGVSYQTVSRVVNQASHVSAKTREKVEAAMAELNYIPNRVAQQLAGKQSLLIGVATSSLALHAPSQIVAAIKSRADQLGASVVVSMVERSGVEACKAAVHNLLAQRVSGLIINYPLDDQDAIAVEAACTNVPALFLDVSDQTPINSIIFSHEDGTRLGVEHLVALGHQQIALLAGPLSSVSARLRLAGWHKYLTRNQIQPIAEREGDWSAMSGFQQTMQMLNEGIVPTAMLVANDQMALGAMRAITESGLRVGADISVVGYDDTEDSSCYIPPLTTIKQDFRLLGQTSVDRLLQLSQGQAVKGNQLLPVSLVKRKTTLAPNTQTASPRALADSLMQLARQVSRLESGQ

As for `CC(C)S[C@@H]1O[C@H](CO)[C@H](O)[C@H](O)[C@H]1O` [IPTG, isopropyl.β-D-thiogalactopyranoside], the “Induction by IPTG” value in the data set with lacR/O was “only moderate induction”. Also, the “ka of lacR for IPTG” value at lacR was 10^6 M^−1. Besides, the “Reduction of binding constant kRo by the inducer” value at lacR (lacR/O system) was 1000 fold.

Take `Cc1c2c(c(O)c3c(O)cccc13)C(=O)[C@]1(O)C(=O)C(C(N)=O)=C(O)[C@@H](N(C)C)[C@@H]1C2` [anhydrotetracycline]: in data set [1], the Antibiotic activity result was “reduced antibiotic activity compared to Tc”.

`CN(C)[C@H]1C(O)=C(C(N)=O)C(=O)[C@@]2(O)C(O)=C3C(=O)c4c(O)cccc4[C@@](C)(O)[C@H]3[C@H](O)[C@@H]12` [epioxytetracycline]: in data set [1], the Antibiotic activity entry was “reduced antibiotic activity compared to Tc”.

As for `CN(C)[C@@H]1C(O)=C(C(N)=O)C(=O)[C@@]2(O)C(O)=C3C(=O)c4c(O)cccc4[C@@](C)(O)[C@H]3C[C@@H]12` [tetracycline], the “Tetracycline concentration at which changes in growth behavior or morphology were observed” value in the data set on HeLa cells (prolonged incubation) was “above 10 μg/ml”. For the same compound, the “Change in growth behavior or morphology of HeLa cells” value in the data set with HeLa cells (tetracycline 0.1 μg/ml) is on record as “no change in growth behavior or morphology”. Also, the “Luciferase activity after addition of tetracycline, share of original value” on tTA (after 12 hr) was less than 2%; at tTA (within 8 hr), “about 10%”. For the same compound, the “Luciferase activity after depletion of tetracycline, share of fully induced (steady-state) level” value on tTA (within 12 hr after shift to tetracycline-free medium) is recorded as more than 20%.
